Converted amounts (≈) assume the structure as drawn. Read-outs that look alike come from different tables or passages of the source. Marks after values point to notes of the source that are not given here. Blank lines part the entries; values can stand above or below the compound they belong to.
What was measured:
[1] = tested on: FCA-induced inflammation of the rat hind paw; assay: Freund's complete adjuvant (FCA) model of inflammatory pain, paw withdrawal threshold; format: in vivo; conditions: for % Reversal [mean]: rat FCA
Method: Test Animals: Each experiment uses rats weighing between 200-260 g at the start of the experiment. The rats are group-housed and have free access to food and water at all times, except prior to oral administration of a Compound of Formula (I) when food is removed for 16 hours before dosing. A control group acts as a comparison to rats treated with a Compound of Formula (I). The control group is administered the vehicle for the Compound of Formula (I). The volume of vehicle administered to the control group is the same as the volume of carrier and Compound of Formula (I) administered to the test group.
Inflammatory Pain: To assess the actions of a Compound of Formula (I) for the treatment or prevention of inflammatory pain, the Freund's complete adjuvant (“FCA”) model of inflammatory pain was used. FCA-induced inflammation of the rat hind paw is associated with the development of persistent inflammatory mechanical hyperalgesia and provides reliable prediction of the anti-hyperalgesic action of clinically useful analgesic drugs (Bartho et al., “Involvement of capsaicin-sensitive neurons in hyperalgesia and enhanced opioid antinociception in inflammation,” Naunyn-Schmiedeberg's Archives of Pharmacol. 342:666-670 (1990)). The right hind paw of each male, 6-week old Jcl:SD rat was administered a 50 μL intraplantar injection of 50% FCA (Sigma-Aldrich). 24 hour post-injection, the animal was assessed for response to noxious mechanical stimuli by determining the PWT, as described below. Rats were then administered a single injection of 0.1, 0.3, 1, 3, or 10 mg/kg of either the product prepared with Compound A155(a) and fumaric acid as described in Example 10, 20 mg/kg of an ibuprofen control (EMD Millipore Chemicals, Inc.), or vehicle as a control (0.5% weight/volume methylcellulose (400cP, Wako Pure Chemical Industries, Ltd., Osaka, Japan)/aqueous solution). […] Responses to noxious mechanical stimuli were then determined 1, 3, 5, and 7 hours post-administration. Percentage reversal of hyperalgesia for each animal was defined as: […]
With the exception of the controls (i.e., ibuprofen, vehicle) where the student's t-test was used, Dunnett's test was conducted for the % reversal. In either instance, values with p<0.05 were considered to be statistically significant. The % reversal results for administration of the product prepared with Compound A155(a) and fumaric acid as described in Example 10 and the respective controls are presented in Table 7.
Response to Mechanical Stimuli as an Assessment of Mechanical Hyperalgesia: The paw pressure assay was used to assess mechanical hyperalgesia. For this assay, hind paw withdrawal thresholds (PWT) to a noxious mechanical stimulus were determined using an analgesymeter (Model 37215, commercially available from Ugo Basile of Italy) as described in Stein, “Unilateral Inflammation of the Hindpaw in Rats as a Model of Prolonged Noxious Stimulation: Alterations in Behavior and Nociceptive Thresholds,” Pharmacol. Biochem. and Behavior 31:451-455 (1988). The maximum weight that could be applied to the hind paw was set at 250 g and the end point was taken as complete withdrawal of the paw. PWT was determined once for each rat at each time point and either only the affected (ipsilateral) paw was tested, or both the ipsilateral and contralateral (non-injured) paw were tested.

[2] = Aqueous solubility at pH 1.2 and pH 6.8; format: physicochemical; conditions: aqueous solution
human TRPV1 = human TRPV1 (Homo sapiens (Human), UniProt Q8NER1); assay: Human TRPV1 heat-based assay, hTRPV1/CHO cells (hHeat-CHO); format: cell-based; conditions: temperature ramp 25 to 45 °C, mean ± SEM
Sequence of human TRPV1 (Q8NER1 whole entry, looked up): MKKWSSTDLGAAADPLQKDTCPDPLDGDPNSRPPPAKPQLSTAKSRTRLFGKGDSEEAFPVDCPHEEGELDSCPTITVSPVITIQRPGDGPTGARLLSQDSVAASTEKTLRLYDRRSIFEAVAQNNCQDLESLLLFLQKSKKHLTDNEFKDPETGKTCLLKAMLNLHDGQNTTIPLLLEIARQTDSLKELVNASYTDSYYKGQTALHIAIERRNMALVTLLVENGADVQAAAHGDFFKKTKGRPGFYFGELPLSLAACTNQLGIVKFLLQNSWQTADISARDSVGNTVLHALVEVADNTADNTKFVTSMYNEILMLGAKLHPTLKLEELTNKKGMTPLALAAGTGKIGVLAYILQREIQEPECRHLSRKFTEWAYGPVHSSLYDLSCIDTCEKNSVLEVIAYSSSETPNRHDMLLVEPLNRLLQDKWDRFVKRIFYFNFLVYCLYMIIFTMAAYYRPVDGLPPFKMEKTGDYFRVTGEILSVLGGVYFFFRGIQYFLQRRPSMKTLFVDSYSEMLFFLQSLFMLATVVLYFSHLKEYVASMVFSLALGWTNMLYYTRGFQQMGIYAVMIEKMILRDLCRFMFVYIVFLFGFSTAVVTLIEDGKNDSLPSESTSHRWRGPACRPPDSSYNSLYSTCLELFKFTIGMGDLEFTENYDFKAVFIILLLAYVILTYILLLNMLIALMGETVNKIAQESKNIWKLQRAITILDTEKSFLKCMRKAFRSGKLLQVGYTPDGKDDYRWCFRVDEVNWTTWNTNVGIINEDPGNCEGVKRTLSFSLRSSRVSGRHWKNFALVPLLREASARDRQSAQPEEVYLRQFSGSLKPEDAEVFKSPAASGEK
Method: Human TRPV1 Heat-based Assay:
CHO cells stably expressing human TRPV1 (hTRPV1) were used. Functional assessment of heat-induced activation of hTRPV1 was carried out in a cell-based Ca^2+ flux assay using ABI7500 Fast Real-Time PCR System as described in Reubish et al., “Functional assessment of temperature-gated ion-channel activity using a real-time PCR machine,” www.BioTechniques.com 47(3):iii-ix (2009), which is hereby incorporated by reference. Briefly, hTRPV1/CHO cells were cultured in growth media in a tissue culture dish at 37° C. in a CO2 incubator. On the day of the assay, culture media were removed and the cells were then detached using 0.05% trypsin at 37° C. with 5% CO2, for 90 s. The detached cells were centrifuged (1000 rpm, 4 min) to remove trypsin-containing supernatant and resuspended in assay buffer (115 mM NaCl, 5.4 mM KCl, 0.8 mM MgCl2.6H2O, 1.8 mM CaCl2.2H2O, 13.8 mM D-glucose, and 20 mM HEPES). Then, the cells were loaded with 5 μM Fluo-4, a Ca^2+ reporter dye, in the presence of 2.5 mM probenecid at 37° C. with 5% CO2, for 45 min. Thereafter, the cells were washed twice with measuring buffer (assay buffer supplemented with 0.1% BSA and 3.2 mM CaCl2) then transferred to a Fast 96-well Reaction Plate (0.1 mL) (Part no. 4346907, MICROAMP, Applied Biosystems, Foster City, Calif.). The cell density was 100,000 cells/24 μL/well. A solution of the compound under test (6 μL/well) was added into each well of the 96-well plate. Thus, the reaction volume per well was 30 μL.
The plates were then placed inside an ABI7500 Fast Real-Time PCR instrument (Applied Biosystems) to read fluorescence at different temperatures using 7500 software, version 2.0.2 (Applied Biosystems). The initial temperature was set at 25° C. for 1 min. followed by a temperature ramp to 45° C. in 100 s to deliver heat to cells. [Ca^2+], response of hTRPV1/CHO cells to heat was determined as: [fluorescence read at 45° C.−fluorescence read at 25° C.].
Compound concentration response curves and IC50 values were analyzed using GraphPad Prism 4 software (GraphPad Software, La Jolla, Calif.).
The IC50 data provided in Table 6 are shown as mean±standard error of the mean; the number of trials conducted for each assay is shown in parentheses except for only a single trial where no number of trials is shown in parentheses.

[3] = pH 1.2, simulated gastric fluid, read-out: aqueous solubility at pH 1.2
[4] = pH 6.8, aqueous buffer, read-out: aqueous solubility at pH 6.8

solubility [2, 3]: > 50 µM | solubility [2, 4]: > 50 µM
SMILES: C[C@H]1CN(c2ncc([C@H](O)CO)cc2F)CCN1C(=O)Nc1nc2ccccc2s1 [A122(a), (S)—N-(benzo[d]thiazol-2-yl)-4-(5-((S)-1,2-dihydroxyethyl)-3-fluoropyridin-2-yl)-2-methylpiperazine-1-carboxamide]

solubility [2, 3]: > 50 µM | solubility [2, 4]: 5 µM (≈ 2.34 µg/mL)
SMILES: C[C@H]1CN(c2ncc([C@H](O)CO)cc2F)CCN1C(=O)Nc1nc2cc(F)c(F)cc2s1 [A158(a), (S)—N-(5,6-difluorobenzo[d]thiazol-2-yl)-4-(5-((S)-1,2-dihydroxyethyl)-3-fluoropyridin-2-yl)-2-methylpiperazine-1-carboxamide]

IC50 (human TRPV1): 101.5 ± 0.8 nM
SMILES: C[C@@H]1CN(C(=O)Nc2nc3cc(F)c(F)cc3s2)CCN1c1ncc([C@H](O)CO)cc1F [AE, (R)—N-(5,6-difluorobenzo[d]thiazol-2-yl)-4-{5-[(S)-1,2-dihydroxyethyl]-3-fluoropyridin-2-yl}-3-methylpiperazine-1-carboxamide]

solubility [2, 3]: > 50 µM | solubility [2, 4]: 4 µM (≈ 1.78 µg/mL) | IC50 (human TRPV1): 155 ± 25 nM
SMILES: Cc1ccc2nc(NC(=O)N3CCN(c4ncc([C@H](O)[C@H](C)O)cc4F)CC3)sc2c1 [C126(r), 4-[5-((1S,2S)-1,2-Dihydroxy-propyl)-3-fluoro-pyridin-2-yl]piperazine-1-carboxylic acid (6-methyl-benzothiazol-2-yl)-amide]

More lines, now with the values behind:

SMILES: CC1CN(c2ncc(C(O)CO)cc2F)CCN1C(=O)Nc1nc2cc(F)ccc2s1.O=C(O)C=CC(=O)O (stereo not shown)
minimal effective dose ([1]; rat FCA model): 0.1 mg/kg | % Reversal [mean] ([1]; 0.1 mg/kg, 1 h after administration): 31.9** % | % Reversal [mean] ([1]; 0.1 mg/kg, 1 h after administration, listed as product prepared with Compound A155(a) and fumaric acid): 31.9% | % Reversal [mean] ([1]; 0.1 mg/kg, 3 h after administration): 37.8** % | % Reversal [mean] ([1]; 0.1 mg/kg, 3 h after administration, listed as product prepared with Compound A155(a) and fumaric acid): 37.8% | % Reversal [mean] ([1]; 0.1 mg/kg, 5 h after administration): 31.3** % | % Reversal [mean] ([1]; 0.1 mg/kg, 5 h after administration, listed as product prepared with Compound A155(a) and fumaric acid): 31.3% | % Reversal [mean] ([1]; 0.1 mg/kg, 7 h after administration): 23.6** % | % Reversal [mean] ([1]; 0.1 mg/kg, 7 h after administration, listed as product prepared with Compound A155(a) and fumaric acid): 23.6% | % Reversal [mean] ([1]; 0.3 mg/kg, 1 h after administration): 65.0** % | % Reversal [mean] ([1]; 0.3 mg/kg, 1 h after administration, listed as product prepared with Compound A155(a) and fumaric acid): 65.0% | % Reversal [mean] ([1]; 0.3 mg/kg, 3 h after administration): 60.2** % | % Reversal [mean] ([1]; 0.3 mg/kg, 3 h after administration, listed as product prepared with Compound A155(a) and fumaric acid): 60.2% | % Reversal [mean] ([1]; 0.3 mg/kg, 5 h after administration): 54.1** % | % Reversal [mean] ([1]; 0.3 mg/kg, 5 h after administration, listed as product prepared with Compound A155(a) and fumaric acid): 54.1% | % Reversal [mean] ([1]; 0.3 mg/kg, 7 h after administration): 39.4** % | % Reversal [mean] ([1]; 0.3 mg/kg, 7 h after administration, listed as product prepared with Compound A155(a) and fumaric acid): 39.4% | % Reversal [mean] ([1]; 1 mg/kg, 1 h after administration): 79.4** % | % Reversal [mean] ([1]; 1 mg/kg, 3 h after administration): 84.1** % | % Reversal [mean] ([1]; 1 mg/kg, 5 h after administration): 78.2** % | % Reversal [mean] ([1]; 1 mg/kg, 7 h after administration): 70.5** % | % Reversal [mean] ([1]; 3 mg/kg, 1 h after administration): 80.3** % | % Reversal [mean] ([1]; 3 mg/kg, 1 h after administration, listed as product prepared with Compound A155(a) and fumaric acid): 80.3% | % Reversal [mean] ([1]; 3 mg/kg, 3 h after administration): 87.9** % | % Reversal [mean] ([1]; 3 mg/kg, 3 h after administration, listed as product prepared with Compound A155(a) and fumaric acid): 87.9% | % Reversal [mean] ([1]; 3 mg/kg, 5 h after administration): 86.6** % | % Reversal [mean] ([1]; 3 mg/kg, 5 h after administration, listed as product prepared with Compound A155(a) and fumaric acid): 86.6% | % Reversal [mean] ([1]; 3 mg/kg, 7 h after administration): 97.3** % | % Reversal [mean] ([1]; 3 mg/kg, 7 h after administration, listed as product prepared with Compound A155(a) and fumaric acid): 97.3% | % Reversal [mean] ([1]; 10 mg/kg, 1 h after administration): 102.5** % | % Reversal [mean] ([1]; 10 mg/kg, 3 h after administration): 94.1** % | % Reversal [mean] ([1]; 10 mg/kg, 5 h after administration): 97.3** % | % Reversal [mean] ([1]; 10 mg/kg, 7 h after administration): 93.1** %

SMILES: C[C@@H]1CN(C(=O)Nc2nc3ccc(F)cc3s2)CCN1c1ncc([C@H](O)CO)cc1F [A125(b), (R)-4-{5-[(S)-1,2-dihydroxyethyl]-3-fluoropyridin-2-yl}-N-(6-fluorobenzo[d]thiazol-2-yl)-3-methylpiperazine-1-carboxamide]
IC50 (human TRPV1): 389 ± 83 nM

SMILES: Cc1ccc2nc(NC(=O)N3CCN(c4ncc([C@H](O)CO)cc4F)C[C@@H]3C)sc2c1 [A126(a), (S)-4-(5-((S)-1,2-dihydroxyethyl)-3-fluoropyridin-2-yl)-2-methyl-N-(6-methylbenzo[d]thiazol-2-yl)piperazine-1-carboxamide]
solubility [2, 3]: > 50 µM | solubility [2, 4]: 14 µM (≈ 6.24 µg/mL)

SMILES: C[C@H](O)[C@@H](O)c1cnc(N2CCN(C(=O)Nc3nc4ccc(F)cc4s3)CC2)c(Cl)c1 [C4(r), 4-{3-Chloro-5-[(1S,2S)-1,2-dihydroxypropyl]pyridin-2-yl}-N-(6-fluorobenzo[d]thiazol-2-yl)piperazine-1-carboxamide]
IC50 (human TRPV1): 87 ± 13 nM

SMILES: C[C@H](O)[C@@H](O)c1cnc(N2CCN(C(=O)Nc3nc4ccc(F)cc4s3)CC2)c(F)c1 [C125(r), 4-(5-((1S,2S)-1,2-dihydroxypropyl)-3-fluoropyridin-2-yl)-N-(6-fluorobenzo[d]thiazol-2-yl)piperazine-1-carboxamide]
solubility [2, 3]: > 50 µM | solubility [2, 4]: 3 µM (≈ 1.35 µg/mL) | IC50 (human TRPV1): 335 ± 40 nM

SMILES: Cc1cc2nc(NC(=O)N3CCN(c4ncc([C@H](O)[C@H](C)O)cc4F)CC3)sc2cc1C [C170(r), 4-(5-((1S,2S)-1,2-dihydroxypropyl)-3-fluoropyridin-2-yl)-N-(5,6-dimethylbenzo[d]thiazol-2-yl)piperazine-1-carboxamide]
IC50 (human TRPV1): 170 ± 20 nM

— US9273043B2, “TRPV1 antagonists including dihydroxy substituent and uses thereof” (Purdue Pharma L.P., priority 2011, dated 2016)
